Earlier results in patent publication US11173121B2, “Pellets having a multi-layer structure for delayed release of the active substance in the distal colon” (Dr. Falk Pharma GmbH, priority 2018, dated 2021).

In the case of `CCCC1O[C@@H]2C[C@H]3[C@@H]4CCC5=CC(=O)C=C[C@]5(C)[C@H]4[C@@H](O)C[C@]3(C)[C@]2(C(=O)CO)O1` (stereo partly shown) [budesonide], the pKa value is given as 12.85±0.10.
